Structures can show the parent of a compound that is named as a salt.

26 molecules from US7834013B2, “Aminophenylcyclopropyl carboxylic acids and derivatives as agonists to GPR40” (GlaxoSmithKline LLC, priority 2003, dated 2010) can be followed below.

This assay concerns the target T1, GPR40 (Homo sapiens, UniProt O14842).
T1 construct: expressed in transfected cells
The assay is described as follows: GPR40 SAR Primary Assay (Elk-1/Gal4-luc+ reporter, luciferase activity). The assay is classed as cell-based. The settings on record: stable GPR40 Elk-1/Gal4-luc+ CHO cell line, 5 hours incubation. How it is done:
An existing stable GPR40 Elk-1/Gal4-luc^+ CHO cell line generated by electroporation and functional cloning was used. Cells were maintained in a humidified incubator at 37° C./5% CO2 in complete media containing DMEM/F12 (Gibco, #11039-021), 5% FBS (Gibco, #16140-071) and 1% Glutamine (Gibco, #25030-081). Cell maintenance passages were made at 1:40 dilution every 3-4 days. Forty eight hours prior to assay, 15e6 cells were added to 200 ml of complete media then seeded into a 1200 cm^2-cell factory and returned to a humidified incubator at 37° C./5% CO2. 20 hours prior to assay, the growth media was removed and replaced with 200 ml of serum-free DMEM/F12 to quiesce background activity. At the time of assay, cells were harvested using non-enzymatic cell dissociation solution (Sigma, #C-5914), washed and counted. The 20 hour starve media was collected and used as condition media for cell assay plating. Cells were plated at a concentration of 10,000 cells/well in a total well volume of […] in black 96-well clear bottom polystyrene plates (CoStar, #3904). Test compounds were prepared as serial dilutions in 100% DMSO, then 1 ul was delivered to each well resulting in a final concentration of 1% DMSO. The plates were then returned to a humidified incubator at 37° C./5% CO2 for 5 hours. Following the incubation, the medium was replaced with 50 ul of a 1:1 mixture of SteadyGlo™ (Promega, #E2550) and dPBS containing 1 mM CaCl2 and 1 mM MgCl2. Plates were then sealed and subjected to dark adaptation at room temperature for 10 minutes. Luciferase activity was measured on a Packard TopCount™ microplate scintillation counter using 2 seconds per well count time.
Data analysis was performed using standard methods.
The Normalization Equation used was 100*(Unknown compound response−Background response)/(Agonist Max response−Background response).
The Curve Fit Function used was y=((Vmax*x^n)/(K^n+x^n))+Y2.
A percent max response and pEC50 were recorded for each compound. Although specific pEC50 values are given, these values should be considered exemplary. Those skilled in the art will appreciate the variability in performing and recording the biological activity assays that are herein described. The compounds of the present invention provide a pEC50 of at least 5.0.

T1 sequence (O14842 whole entry): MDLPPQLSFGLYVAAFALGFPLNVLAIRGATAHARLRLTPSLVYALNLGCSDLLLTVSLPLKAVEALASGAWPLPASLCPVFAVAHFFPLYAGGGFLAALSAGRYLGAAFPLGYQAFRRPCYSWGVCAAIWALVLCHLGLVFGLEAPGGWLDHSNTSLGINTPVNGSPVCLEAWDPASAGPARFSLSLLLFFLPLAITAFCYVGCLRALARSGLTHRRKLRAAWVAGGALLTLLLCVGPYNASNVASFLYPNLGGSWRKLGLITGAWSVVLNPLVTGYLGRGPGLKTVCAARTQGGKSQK

The molecule `O=C(O)C1CC1c1ccc(NCc2cccc(Oc3ccccc3)c2)cc1` (racemic) [Example 1, Racemic-(trans)-2-[4-({[3-(phenyloxy)phenyl]methyl}ammonium)phenyl]cyclopropanecarboxylic Acid Trifluoroacetate] gave a half-maximal effective concentration (EC50) of 12.6 nM.

Take `O=C(O)[C@@H]1C[C@H]1c1ccc(NCc2ccc(-c3ccccc3)cc2)cc1` (racemic) [Example 2, Racemic-(trans)-2-{4-[(4-biphenylylmethyl)amino]phenyl}cyclopropanecarboxylic Acid]: it took 25.1 nM to reach a half-maximal effect (EC50). The molecule `O=C(O)[C@@H]1C[C@H]1c1ccc(NCc2ccc(-c3ccccn3)cc2)cc1` (racemic) [Example 3, Racemic-(trans)-2-[4-({[4-(2-pyridinyl)phenyl]methyl}amino)phenyl]cyclopropanecarboxylic Acid] showed an EC50 of 1580 nM. `O=C(O)C1CC1c1ccc(NCc2cccc(Oc3ccc(Cl)c(Cl)c3)c2)cc1` (racemic) [Example 4, Racemic-(trans)-2-{4-[({3-[(3,4-dichlorophenyl)oxy]phenyl}methyl)ammonium]phenyl}-cyclopropanecarboxylic Acid Trifluoroacetate] showed an EC50 of 2 nM.

Regarding `COc1ccc(Oc2cccc(CNc3ccc(C4CC4C(=O)O)cc3)c2)cc1` (racemic) [Example 5, Racemic-(trans)-2-(4-{[(3-{[4-(methyloxy)phenyl]oxy}phenyl)methyl]ammonium}phenyl)-cyclopropanecarboxylic Acid Trifluoroacetate], the EC50 is 20 nM. Regarding `O=C(O)C1CC1c1ccc(NCc2cccc(Oc3ccc(Cl)cc3)c2)cc1` (racemic) [Example 6, Racemic-(trans)-2-{4-[({3-[(4-chlorophenyl)oxy]phenyl}methyl)ammonium]phenyl}-cyclopropanecarboxylic Acid Trifluoroacetate], a half-maximal response (EC50) required 15.8 nM. Molecule `CC(C)(C)c1ccc(Oc2cccc(CNc3ccc(C4CC4C(=O)O)cc3)c2)cc1` (racemic) [Example 7, Racemic-(trans)-2-(4-{[(3-{[4-(1,1-dimethylethyl)phenyl]oxy}phenyl)methyl]ammonium}phenyl)cyclopropanecarboxylic Acid Trifluoroacetate] had an EC50 of 20 nM. With `O=C(O)C1CC1c1ccc(NCc2cccc(Oc3cc(Cl)cc(Cl)c3)c2)cc1` (racemic) [Example 8, Racemic-(trans)-2-{4-[({3-[(3,5-dichlorophenyl)oxy]phenyl}methyl)ammonium]phenyl}-cyclopropanecarboxylic Acid Trifluoroacetate], it took 6.31 nM to reach a half-maximal effect (EC50). The result for `O=C(O)C1CC1c1ccc(NCc2cccc(Oc3cccc(C(F)(F)F)c3)c2)cc1` (racemic) [Example 9, Racemic-(trans)-2-(4-{[(3-{[3-(trifluoromethyl)phenyl]oxy}phenyl)methyl]ammonium}-phenyl)cyclopropanecarboxylic Acid Trifluoroacetate] reads 7.94 nM. The molecule `Cc1ccc(Oc2cccc(CNc3ccc(C4CC4C(=O)O)cc3)c2)cc1` (racemic) [Example 10, Racemic-(trans)-2-{4-[({3-[(4-methylphenyl)oxy]phenyl}methyl)ammonium]phenyl}-cyclopropanecarboxylic Acid Trifluoroacetate] showed an EC50 of 10 nM. `O=C(O)C1CC1c1ccc(NCc2cccc(OCc3ccccc3)c2)cc1` (racemic) [Example 11, Racemic-(trans)-2-{4-[({3-[(phenylmethyl)oxy]phenyl}methyl)ammonium]phenyl}-cyclopropanecarboxylic Acid Trifluoroacetate]: a half-maximal response (EC50) required 126 nM. As to `Cc1nc(Oc2ccccc2)sc1CNc1ccc(C2CC2C(=O)O)cc1` (racemic) [Example 12, Racemic-(trans)-2-[4-({[4-methyl-2-(phenyloxy)-1,3-thiazol-5-yl]methyl}ammonium)-phenyl]cyclopropanecarboxylic Acid Trifluoroacetate], a half-maximal response (EC50) required 398 nM. `Cc1nc(-c2ccc(C(F)(F)F)cc2)sc1CNc1ccc([C@@H]2C[C@H]2C(=O)O)cc1` (racemic) [Example 13, Racemic-(trans)-2-{4-[({4-methyl-2-[4-(trifluoromethyl)phenyl]-1,3-thiazol-5-yl}methyl)amino]phenyl}cyclopropanecarboxylic Acid] gave an EC50 of 20 nM.

The molecule `CC(C)c1nc(-c2ccc(C(F)(F)F)cc2)sc1CNc1ccc([C@@H]2C[C@H]2C(=O)O)cc1` (racemic) [Example 14, Racemic-(trans)-2-{4-[({4-isopropyl-2-[4-(trifluoromethyl)phenyl]-1,3-thiazol-5-yl}methyl)amino]phenyl}cyclopropanecarboxylic Acid] showed a concentration for a half-maximal effect (EC50) of 15.8 nM.

The molecule `O=C(O)[C@@H]1C[C@H]1c1ccc(NCc2ccc(-c3ccc(Cl)cc3)o2)cc1` (racemic) [Example 15, Racemic-(trans)-2-[4-({[5-(4-chlorophenyl)-2-furanyl]methyl}amino)phenyl]cyclopropanecarboxylic Acid] gave an EC50 of 126 nM. The figure for `O=C(O)[C@@H]1C[C@H]1c1ccc(NCc2ccc(OCc3ccccc3)cc2)cc1` (racemic) [Example 16, Racemic-(trans)-2-{4-[({4-[(phenylmethyl)oxy]phenyl}methyl)amino]phenyl}cyclopropanecarboxylic Acid trifluoroacetate] is 63.1 nM; for `Cc1nc(Oc2ccc(F)c(F)c2)sc1CNc1ccc([C@@H]2C[C@H]2C(=O)O)cc1` (racemic) [Example 17, Racemic-(trans)-2-{4-[({2-[(3,4-difluorophenyl)oxy]-4-methyl-1,3-thiazol-5-yl}methyl)amino]phenyl}cyclopropanecarboxylic Acid] it is 251 nM; for `O=C(O)[C@@H]1C[C@H]1c1ccc(NCc2ccc(-c3ccc(C(F)(F)F)cc3)o2)cc1` (racemic) [Example 18, Racemic-(trans)-2-{4-[({5-[4-(trifluoromethyl)phenyl]-2-furanyl}methyl)amino]phenyl}cyclopropanecarboxylic Acid Trifluoroacetate] it is 251 nM.

On to `O=C(O)[C@@H]1C[C@H]1c1ccc(NCc2ccc(-c3ccc(C(F)(F)F)cc3)s2)cc1` (racemic) [Example 19, Racemic-(trans)-2-{4-[({5-[4-(trifluoromethyl)phenyl]-2-thienyl}methyl)amino]phenyl}cyclopropanecarboxylic Acid Trifluoroacetate], for which the EC50 is 63.1 nM.

As to `O=C(O)[C@@H]1C[C@H]1c1ccc(NCc2cc(-c3ccc(C(F)(F)F)cc3)co2)cc1` (racemic) [Example 20, Racemic-(trans)-2-{4-[({4-[4-(trifluoromethyl)phenyl]-2-furanyl}methyl)amino]phenyl}cyclopropanecarboxylic Acid], a half-maximal effect (EC50) was put at 158 nM. Consider `O=C(O)[C@H]1C[C@@H]1c1ccc(NCc2cccc(Cc3ccccc3)c2)cc1` (racemic) [Example 21, Racemic-(trans)-2-[4-({[3-(phenylmethyl)phenyl]methyl}amino)phenyl]cyclopropanecarboxylic Acid Trifluoroacetate], for which the EC50 is 25.1 nM. Take `O=C(O)[C@H]1C[C@@H]1c1ccc(NCc2cccc(Oc3ccc([N+](=O)[O-])cc3)c2)cc1` (racemic) [Example 22, Racemic-(trans)-2-{4-[({3-[(4-nitrophenyl)oxy]phenyl}methyl)amino]phenyl}cyclopropanecarboxylic Acid Trifluoroacetate]: the EC50 was 316 nM. As for `O=C(O)[C@H]1C[C@@H]1c1ccc(NCc2cccc(Sc3ccccc3)c2)cc1` (racemic) [Example 23, Racemic-(trans)-2-[4-({[3-(phenylthio)phenyl]methyl}amino)phenyl]cyclopropanecarboxylic Acid Trifluoroacetate], the concentration for a half-maximal effect (EC50) is 31.6 nM. As for `Nc1ccc(Oc2cccc(CNc3ccc([C@H]4C[C@@H]4C(=O)O)cc3)c2)cc1` (racemic) [Example 24, Racemic-(trans)-2-{4-[({3-[(4-aminophenyl)oxy]phenyl}methyl)amino]phenyl}cyclopropanecarboxylic Acid Trifluoroacetate], the EC50 is 200 nM.

The molecule `NC(=O)C1CC1c1ccc(NCc2ccc(-c3ccccc3)cc2)cc1` (racemic) [Example 35, Racemic-(trans)-2-{4-[(4-biphenylmethyl)amino]phenyl}cyclopropanecarboxamide] showed a 50% effective concentration (EC50) of 20 nM. In the case of `NC(=O)[C@@H]1C[C@H]1c1ccc(NCc2ccc(-c3ccccn3)cc2)cc1` (racemic) [Example 36, Racemic-(trans)-2-[4-({[4-(2-pyridinyl)phenyl]methyl}amino)phenyl]cyclopropanecarboxamide], the half-maximal effective concentration (EC50) was 251 nM.
